Results published in US8415469B2, “Compounds and methods for kinase modulation, and indications therefor” (Plexxikon Inc., priority 2005, dated 2013).

Columns and labels:
Format in all cases: biochemical
[1] = biological target: T1, Fms (Homo sapiens, UniProt P07333); test: AlphaScreen kinase assay, Fms; settings: read-out: IC50, activity toward kinase Fms
T1 construct: purchased Upstate Biotechnology

[2] = biological target: T2, Fak (Homo sapiens, UniProt Q05397); test: AlphaScreen kinase assay, Fak; settings: read-out: IC50, activity toward kinase Fak
T2 construct: P1358.pFastBacHtb FAK S411-Q686-X; His6 with pFastBacHTb leader (TEV site) (N); made in house; host or cells: Sf9 (baculovirus)
T2 sequence (Q05397 411-686): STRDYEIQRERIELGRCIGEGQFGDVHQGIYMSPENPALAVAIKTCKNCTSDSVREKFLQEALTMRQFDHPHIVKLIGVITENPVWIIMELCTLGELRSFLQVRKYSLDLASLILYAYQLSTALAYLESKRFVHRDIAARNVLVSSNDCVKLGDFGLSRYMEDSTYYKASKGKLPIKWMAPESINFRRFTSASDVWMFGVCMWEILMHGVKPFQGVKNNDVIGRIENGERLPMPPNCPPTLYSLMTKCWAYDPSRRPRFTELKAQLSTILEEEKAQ

[3] = biological target: T3, Jnk3 (Homo sapiens, UniProt P53779); test: AlphaScreen kinase assay, Jnk3; settings: read-out: IC50, activity toward kinase Jnk3
T3 construct: purchased Upstate Biotechnology
T3 sequence (P53779 whole entry): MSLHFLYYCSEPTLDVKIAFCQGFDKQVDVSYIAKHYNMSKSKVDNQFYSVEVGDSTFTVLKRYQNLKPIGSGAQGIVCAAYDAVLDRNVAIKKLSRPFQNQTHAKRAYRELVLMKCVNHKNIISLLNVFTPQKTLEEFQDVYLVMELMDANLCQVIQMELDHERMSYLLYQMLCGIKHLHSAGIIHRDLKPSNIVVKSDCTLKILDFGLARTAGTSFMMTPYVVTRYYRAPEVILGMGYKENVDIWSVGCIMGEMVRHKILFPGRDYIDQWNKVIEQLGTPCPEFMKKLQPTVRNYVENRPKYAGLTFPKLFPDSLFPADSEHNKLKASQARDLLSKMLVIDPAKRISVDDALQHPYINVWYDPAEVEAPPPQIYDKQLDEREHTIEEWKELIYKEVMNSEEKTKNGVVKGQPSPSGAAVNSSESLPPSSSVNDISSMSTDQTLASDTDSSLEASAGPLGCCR

[4] = biological target: T4, FGFR1 (Homo sapiens, UniProt P11362, C488A/C584S); test: AlphaScreen kinase assay, FGFR1; settings: read-out: IC50, activity toward kinase FGFR
T4 construct: P1351.pET N6 BI-PTP FGFR A458-E765-X C488A, C584S; made in house; host or cells: E. coli (PTP1B co-expressed)
T4 sequence (P11362 458-765 C488A/C584S): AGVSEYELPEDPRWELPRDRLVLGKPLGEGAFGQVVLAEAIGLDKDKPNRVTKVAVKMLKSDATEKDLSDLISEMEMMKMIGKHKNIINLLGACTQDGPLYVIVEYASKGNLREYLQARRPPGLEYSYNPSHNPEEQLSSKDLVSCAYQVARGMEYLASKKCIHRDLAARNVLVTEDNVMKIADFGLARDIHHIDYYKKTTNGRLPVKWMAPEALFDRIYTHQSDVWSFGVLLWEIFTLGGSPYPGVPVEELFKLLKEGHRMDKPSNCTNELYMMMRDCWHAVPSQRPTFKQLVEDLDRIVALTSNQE

[5] = biological target: T5, Yes (Homo sapiens, UniProt P07947); test: Z'-Lyte FRET kinase assay (Invitrogen), Yes; settings: read-out: IC50, activity toward kinase Yes
T5 construct: purchased Invitrogen (Carlsbad, Calif.), screening service
T5 sequence (P07947 whole entry): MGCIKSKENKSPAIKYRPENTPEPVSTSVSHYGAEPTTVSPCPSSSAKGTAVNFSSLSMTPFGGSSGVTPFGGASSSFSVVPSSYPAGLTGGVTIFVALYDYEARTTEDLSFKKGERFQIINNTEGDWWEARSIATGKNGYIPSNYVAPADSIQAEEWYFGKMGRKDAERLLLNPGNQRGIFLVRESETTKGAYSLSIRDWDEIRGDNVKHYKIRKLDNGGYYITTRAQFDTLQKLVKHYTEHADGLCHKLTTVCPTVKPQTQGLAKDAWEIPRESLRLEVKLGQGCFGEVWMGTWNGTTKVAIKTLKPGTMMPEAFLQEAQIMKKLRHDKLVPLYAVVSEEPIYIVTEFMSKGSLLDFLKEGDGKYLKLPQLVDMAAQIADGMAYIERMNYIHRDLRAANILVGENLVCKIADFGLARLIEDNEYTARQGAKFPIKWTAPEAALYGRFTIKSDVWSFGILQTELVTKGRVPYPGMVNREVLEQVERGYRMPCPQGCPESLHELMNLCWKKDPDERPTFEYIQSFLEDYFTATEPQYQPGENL
In short: (§1)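 Serially diluted compound (1% DMSO final) is mixed with kinase plus 2 μM peptide substrate in pH 7.5 HEPES buffer, then ATP is added to 10 μM. After 1 h at room temperature, site-specific protease is added for another hour, reactions are stopped and fluorescence ratio measured.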

[6] = biological target: T6, Stk6 (Homo sapiens, UniProt O14965); test: Z'-Lyte FRET kinase assay (Invitrogen), Stk6; settings: read-out: IC50, activity toward kinase Stk6
T6 construct: purchased Invitrogen (Carlsbad, Calif.), screening service
T6 sequence (O14965 1-403): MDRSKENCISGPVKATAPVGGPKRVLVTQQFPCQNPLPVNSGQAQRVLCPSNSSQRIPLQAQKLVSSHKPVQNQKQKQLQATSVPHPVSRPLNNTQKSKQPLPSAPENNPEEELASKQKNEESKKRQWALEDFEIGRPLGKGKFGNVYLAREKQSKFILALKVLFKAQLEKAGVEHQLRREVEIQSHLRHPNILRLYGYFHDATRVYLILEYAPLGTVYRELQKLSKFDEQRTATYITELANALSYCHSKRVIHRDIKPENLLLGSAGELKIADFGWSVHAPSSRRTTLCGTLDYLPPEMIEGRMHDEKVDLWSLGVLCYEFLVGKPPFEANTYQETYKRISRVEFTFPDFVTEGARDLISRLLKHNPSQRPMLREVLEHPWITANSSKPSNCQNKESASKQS

[7] = biological target: T7, Ret (Homo sapiens, UniProt P07949); test: AlphaScreen kinase assay, Ret; settings: read-out: IC50, activity toward kinase Ret
T7 construct: P1378.pET-SF BI-PTP RET H661-R1012 HIS; made in house
T7 sequence (P07949 with tags, fused parts or gaps): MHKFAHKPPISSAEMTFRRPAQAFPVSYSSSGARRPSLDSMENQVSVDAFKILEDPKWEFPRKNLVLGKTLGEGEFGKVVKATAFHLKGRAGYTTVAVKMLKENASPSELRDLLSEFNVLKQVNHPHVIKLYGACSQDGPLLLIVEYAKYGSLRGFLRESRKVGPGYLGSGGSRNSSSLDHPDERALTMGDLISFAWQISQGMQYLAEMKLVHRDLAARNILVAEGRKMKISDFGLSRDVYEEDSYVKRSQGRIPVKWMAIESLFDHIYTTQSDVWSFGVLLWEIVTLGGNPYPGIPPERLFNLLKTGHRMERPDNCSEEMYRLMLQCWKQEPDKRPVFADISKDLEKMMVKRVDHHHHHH

[8] = biological target: T8, PKC theta (Homo sapiens, UniProt Q04759); test: Z'-Lyte FRET kinase assay (Invitrogen), PKC theta; settings: read-out: IC50, activity toward kinase PKC theta
T8 construct: purchased Invitrogen (Carlsbad, Calif.), screening service
T8 sequence (Q04759 whole entry): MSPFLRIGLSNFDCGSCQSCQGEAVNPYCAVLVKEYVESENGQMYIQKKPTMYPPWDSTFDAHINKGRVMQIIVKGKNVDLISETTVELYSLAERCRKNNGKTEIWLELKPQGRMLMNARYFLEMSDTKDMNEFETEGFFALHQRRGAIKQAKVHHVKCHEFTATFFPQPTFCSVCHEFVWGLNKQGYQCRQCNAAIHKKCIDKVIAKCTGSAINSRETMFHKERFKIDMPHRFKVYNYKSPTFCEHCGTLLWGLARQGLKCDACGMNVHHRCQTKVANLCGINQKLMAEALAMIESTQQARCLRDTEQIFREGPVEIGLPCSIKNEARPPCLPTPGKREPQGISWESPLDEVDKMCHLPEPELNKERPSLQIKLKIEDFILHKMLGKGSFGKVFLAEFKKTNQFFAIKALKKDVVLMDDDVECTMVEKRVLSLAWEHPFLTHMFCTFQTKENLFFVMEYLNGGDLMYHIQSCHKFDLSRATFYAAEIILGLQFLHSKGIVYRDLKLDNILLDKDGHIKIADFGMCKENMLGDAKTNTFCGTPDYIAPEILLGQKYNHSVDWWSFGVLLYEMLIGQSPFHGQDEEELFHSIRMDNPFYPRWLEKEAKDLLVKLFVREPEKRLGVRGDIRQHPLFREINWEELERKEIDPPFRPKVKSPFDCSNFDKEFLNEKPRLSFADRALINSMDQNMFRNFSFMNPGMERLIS
In short: as §1

T1 sequence (P07333 20-972): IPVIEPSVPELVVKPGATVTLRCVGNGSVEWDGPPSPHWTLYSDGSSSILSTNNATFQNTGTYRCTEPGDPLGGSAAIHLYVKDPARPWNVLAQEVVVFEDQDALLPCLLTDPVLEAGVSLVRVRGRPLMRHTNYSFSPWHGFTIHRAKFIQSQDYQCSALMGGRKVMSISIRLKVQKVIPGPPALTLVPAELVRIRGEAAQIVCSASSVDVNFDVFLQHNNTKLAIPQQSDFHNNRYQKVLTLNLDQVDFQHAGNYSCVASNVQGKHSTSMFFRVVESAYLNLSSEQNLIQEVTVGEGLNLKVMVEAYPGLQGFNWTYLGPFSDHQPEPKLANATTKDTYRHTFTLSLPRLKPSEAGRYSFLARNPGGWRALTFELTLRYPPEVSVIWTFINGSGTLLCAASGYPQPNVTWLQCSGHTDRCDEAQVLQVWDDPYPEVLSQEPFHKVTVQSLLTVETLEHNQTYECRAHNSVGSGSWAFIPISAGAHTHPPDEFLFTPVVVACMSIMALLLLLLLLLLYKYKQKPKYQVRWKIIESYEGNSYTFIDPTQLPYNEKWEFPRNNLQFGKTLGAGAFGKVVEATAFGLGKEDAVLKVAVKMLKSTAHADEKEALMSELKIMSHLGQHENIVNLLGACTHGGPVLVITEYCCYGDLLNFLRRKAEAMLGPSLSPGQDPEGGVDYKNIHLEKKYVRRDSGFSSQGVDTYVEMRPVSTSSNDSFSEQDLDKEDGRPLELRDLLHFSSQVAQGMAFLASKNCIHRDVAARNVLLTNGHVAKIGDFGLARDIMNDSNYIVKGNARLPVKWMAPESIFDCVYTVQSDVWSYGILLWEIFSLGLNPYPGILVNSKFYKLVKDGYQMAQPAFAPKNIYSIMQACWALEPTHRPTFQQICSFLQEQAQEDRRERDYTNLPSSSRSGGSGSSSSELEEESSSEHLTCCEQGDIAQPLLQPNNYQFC

IC50 [1] [µM]	IC50 [2] [µM]	IC50 [3] [µM]	IC50 [4] [µM]	IC50 [5] [µM]	IC50 [6] [µM]	IC50 [7] [µM]	IC50 [8] [µM]	SMILES
≤ 10	≤ 10	≤ 10	≤ 10	≤ 10	–	–	–	CN(C)S(=O)(=O)Nc1ccc(F)c(Cc2c[nH]c3ncc(-c4cccnc4)cc23)c1F [Compound P-0166]
–	–	≤ 10	≤ 10	≤ 10	≤ 10	≤ 10	–	Oc1cccc(Cc2c[nH]c3ncc(-c4ccsc4)cc23)c1 [Compound P-0056]
≤ 10	≤ 10	≤ 10	≤ 10	≤ 10	–	≤ 10	–	O=C(c1cccc(O)c1F)c1c[nH]c2ncc(-c3cccnc3)cc12 [Compound P-0027, (2-Fluoro-3-hydroxy-phenyl)-(5-pyridin-3-yl-1H-pyrrolo[2,3-b]pyridin-3-yl)-methanone]
≤ 10	≤ 10	≤ 10	≤ 10	–	–	≤ 10	≤ 10	O=C(c1cccc(O)c1)c1c[nH]c2ncc(Nc3ccccc3)cc12 [Compound P-0025]
≤ 10	≤ 10	≤ 10	≤ 10	–	–	≤ 10	≤ 10	Cc1c(O)cccc1C(=O)c1c[nH]c2ncc(-c3cccnc3)cc12 [Compound P-0006, (3-Hydroxy-2-methyl-phenyl)-(5-pyridin-3-yl-1H-pyrrolo[2,3b]pyridin-3-yl)-methanone]
–	–	≤ 10	≤ 10	≤ 10	≤ 10	≤ 10	–	Cc1ccc(F)cc1C(=O)c1c[nH]c2ncc(-c3cccc(N)c3)cc12 [Compound P-0040]
≤ 10	≤ 10	≤ 10	≤ 10	≤ 10	–	≤ 10	–	Cc1c(O)cccc1C(=O)c1c[nH]c2ncc(-c3ccccc3)cc12 [Compound P-0016, (3-Hydroxy-2-methyl-phenyl)-(5-phenyl-1H-pyrrolo[2,3b]pyridin-3-yl)-methanone]
≤ 10	≤ 10	≤ 10	≤ 10	≤ 10	–	≤ 10	–	CS(=O)(=O)c1cccc(-c2cnc3[nH]cc(C(=O)c4c(F)ccc(F)c4F)c3c2)c1 [Compound P-0102, [5-(3-Methanesulfonyl-phenyl)-1H-pyrrolo[2,3-b]pyridin-3-yl]-(2,3,6-trifluoro-phenyl)-methanone]
≤ 10	≤ 10	–	≤ 10	≤ 10	–	–	–	O=C(c1cccc(O)c1F)c1c[nH]c2ncc(Br)cc12 [Compound P-0067, (5-bromo-1H-pyrrolo[2,3-b]pyridin-3-yl)-(2-fluoro-3-hydroxy-phenyl)-methanone]
≤ 10	≤ 10	≤ 10	≤ 10	–	–	≤ 10	≤ 10	CS(=O)(=O)c1cccc(-c2cnc3[nH]cc(C(=O)c4cccc(O)c4F)c3c2)c1 [Compound P-0026, (2-Fluoro-3-hydroxy-phenyl)-[5-(3-methanesulfonylphenyl)1H-pyrrolo[2,3-b]pyridin-3-yl]-methanone]
≤ 10	≤ 10	≤ 10	≤ 10	≤ 10	≤ 10	≤ 10	–	O=C(c1cc(O)ccc1F)c1c[nH]c2ncc(-c3ccccc3)cc12 [Compound P-0045]
–	–	≤ 10	≤ 10	≤ 10	≤ 10	≤ 10	–	COc1ccc(C(=O)c2c[nH]c3ncc(-c4cccc(/C=C/C(=O)O)c4)cc23)c(Cl)c1 [Compound P-0015]
≤ 10	≤ 10	≤ 10	≤ 10	≤ 10	≤ 10	≤ 10	–	CCCS(=O)(=O)Nc1ccc(F)c(C(=O)c2c[nH]c3ncc(-c4cccnc4)cc23)c1F [Compound P-0088, Propane-1-sulfonic acid [2,4-difluoro-3-(5-pyridin-3-yl-1H-pyrrolo[2,3-b]pyridine-3-carbonyl)-phenyl]-amide]
≤ 10	–	≤ 10	≤ 10	≤ 10	–	≤ 10	–	COc1ccc(F)c(C(=O)c2c[nH]c3ncc(-c4cccnc4)cc23)c1 [Compound P-0090]
≤ 10	–	≤ 10	≤ 10	≤ 10	≤ 10	–	–	Oc1cc(O)cc(Cc2c[nH]c3ncc(-c4ccsc4)cc23)c1 [Compound P-0093]
≤ 10	≤ 10	–	≤ 10	≤ 10	≤ 10	–	–	CCCS(=O)(=O)Nc1ccc(F)c(C(=O)c2c[nH]c3ncccc23)c1F [Compound P-0007, Propane-1-sulfonic acid [2,4-difluoro-3-(1H-pyrrolo[2,3-b]pyridine-3-carbonyl)-phenyl]-amide]
≤ 10	–	≤ 10	≤ 10	≤ 10	≤ 10	≤ 10	–	O=C(O)/C=C/c1cccc(-c2cnc3[nH]cc(C(=O)c4cc(O)ccc4F)c3c2)c1 [Compound P-0010]
≤ 10	–	–	≤ 10	≤ 10	≤ 10	≤ 10	–	Cc1c(NS(C)(=O)=O)cccc1C(=O)c1c[nH]c2ncc(-c3ccccc3)cc12 [Compound P-0082, N-[2-Methyl-3-(5-phenyl-1H-pyrrolo[2,3-b]pyridine-3-carbonyl)-phenyl]-methanesulfonamide]
≤ 10	–	–	≤ 10	≤ 10	≤ 10	≤ 10	–	OC(c1c(F)ccc(F)c1F)c1c[nH]c2ncc(-c3cccnc3)cc12 (centres unmarked) [Compound P-0101]
–	–	–	≤ 10	–	–	≤ 10	≤ 10	O=C(c1cccc(O)c1)c1c[nH]c2nccc(-c3cc(F)cc(F)c3)c12 [Compound P-0039]
≤ 10	–	≤ 10	≤ 10	≤ 10	–	≤ 10	–	CCCS(=O)(=O)Nc1ccc(F)c(C(=O)c2c[nH]c3ncc(-c4ccccc4)cc23)c1F [Compound P-0636, Propane-1-sulfonic acid [2,4-difluoro-3-(5-phenyl-1H-pyrrolo[2,3-b]pyridine-3-carbonyl)-phenyl]-amide]
–	–	≤ 10	≤ 10	≤ 10	≤ 10	≤ 10	–	Oc1cccc(Cc2c[nH]c3ncc(-c4cccs4)cc23)c1F [Compound P-0052, 2-Fluoro-3-(5-thiophen-2-yl-1H-pyrrolo[2,3-b]pyridin-3-ylmethyl)-phenol]
≤ 10	≤ 10	≤ 10	≤ 10	≤ 10	–	≤ 10	–	O=C(c1cccc(O)c1F)c1c[nH]c2ncc(-c3ccccc3)cc12 [Compound P-0036, (2-fluoro-3-hydroxy-phenyl)-(5-phenyl-1H-pyrrolo[2,3-b]pyridin-3-yl)-methanone]
≤ 10	–	≤ 10	≤ 10	≤ 10	≤ 10	≤ 10	–	O=C(O)/C=C/c1cccc(-c2cnc3[nH]cc(C(=O)c4ccccc4F)c3c2)c1 [Compound P-0033]
–	–	–	≤ 10	≤ 10	≤ 10	≤ 10	–	Nc1ccnc2[nH]cc(C(=O)c3ccccc3)c12 [Compound P-0029]
